# In patent publication US20050223431A1, “Methods of modulating glucosinolate production in plants” (The Arizona Board of Regents on Behalf of the University of …, priority 2000, published 2005):
# T1: CYP83A1 (Arabidopsis thaliana, UniProt P48421)
# T1 sequence (P48421 1-502): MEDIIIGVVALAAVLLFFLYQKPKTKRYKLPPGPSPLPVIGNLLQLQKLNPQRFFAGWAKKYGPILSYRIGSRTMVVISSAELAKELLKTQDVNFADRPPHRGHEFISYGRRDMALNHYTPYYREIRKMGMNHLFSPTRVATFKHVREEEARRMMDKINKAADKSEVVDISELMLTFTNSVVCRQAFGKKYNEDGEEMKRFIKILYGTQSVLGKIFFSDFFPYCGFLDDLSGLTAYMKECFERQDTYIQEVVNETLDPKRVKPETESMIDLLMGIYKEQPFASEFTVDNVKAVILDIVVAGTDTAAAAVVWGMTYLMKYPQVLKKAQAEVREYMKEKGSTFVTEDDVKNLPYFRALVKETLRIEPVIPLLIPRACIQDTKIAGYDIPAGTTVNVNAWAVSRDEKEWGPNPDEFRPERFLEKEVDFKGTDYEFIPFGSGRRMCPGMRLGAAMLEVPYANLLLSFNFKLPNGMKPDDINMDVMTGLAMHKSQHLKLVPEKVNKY
# T2: CYP83B1 (Arabidopsis thaliana, UniProt O65782)
# T2 sequence (O65782 1-499): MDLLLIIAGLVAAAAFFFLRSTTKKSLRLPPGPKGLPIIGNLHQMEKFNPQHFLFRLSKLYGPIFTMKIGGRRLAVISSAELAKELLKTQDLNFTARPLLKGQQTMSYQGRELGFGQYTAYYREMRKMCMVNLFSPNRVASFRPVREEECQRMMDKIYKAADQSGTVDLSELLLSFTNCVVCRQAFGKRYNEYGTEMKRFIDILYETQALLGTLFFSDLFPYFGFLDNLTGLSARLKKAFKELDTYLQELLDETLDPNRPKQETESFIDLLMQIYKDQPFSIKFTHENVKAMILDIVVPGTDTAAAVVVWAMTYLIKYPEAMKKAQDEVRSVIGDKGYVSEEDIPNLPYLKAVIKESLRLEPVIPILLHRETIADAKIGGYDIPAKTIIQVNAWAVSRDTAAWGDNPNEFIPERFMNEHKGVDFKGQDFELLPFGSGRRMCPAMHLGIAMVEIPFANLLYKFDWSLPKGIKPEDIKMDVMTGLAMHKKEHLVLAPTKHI
# B1: CYP83B1 (Arabidopsis thaliana) (protein)
# chain: T2 sequence (O65782 1-499)
# Experiments:
# CYP83A1 [1] = biological target: T1, CYP83A1; assay: biochemical; conditions: for Type II spectrum (ligand binding to active site) / Relative affinity for ligand binding, from amplitudes of type II spectra: CYP83A1, 200 μM ligand
# Text: (§1) FIG. 6 is a spectral characterization of CYP83A1 and CYP83B1. […] 1) tryptamine, 2) β-phenylethylamine, 3) tyramine, 4) n-octylamine, 5) 5-OH-tryptamine, 6) 3-OH-tyramine, B) baseline.
# (§2) To compensate for ligand absorbance, the experimental data were fitted to a hyperbolic curve using the equation A=Amax*X/(Ks+X)+C*X, where A is the amplitude of the spectra, X the concentration of ligand, and C the contribution from ligand absorbance. The computed regression curve is shown as well as the experimental data points.
# (§3) Microsomes from yeast WAT11 cells expressing the CYP83A1 and CYP83B1 cDNA using the pYeDP60 vector were isolated and the amount of functional enzyme quantified essentially according to Pompon et al. (1996) Methods Enzymol. 272:51-64. […] 13:101-111 and references therein. Vmax and Km were determined as previously described using 2.2 nM of CYP83A1 or CYP83B1 and 50 mM L-cysteine as thiol donor (Bak et al. (2001) Plant Cell. 13:101-111). […] Vmax, Km, and Ks were calculated using SigmaPlot 5.0 (SPSS Inc.). For analysis of CYP83B1 activity in the presence or absence of thiol donors, recombinant CYP83B1 was reconstituted and analyzed as previously described (Bak et al. (2001) Plant Cell. 13:101-111).
# (§4) To characterize the topology of the active sites of […] and CYP83B 1, we have taken advantage of the ability of nitrogen-containing ligands like primary amines to produce type II spectra with cytochrome P450 enzymes by binding to the active site bringing the electron lone pairs of the amine group in close vicinity to the heme iron (Jefcoate C. R. (1978) Methods Enzymol 27:258-279). This gives rise to a characteristic spectrum with a trough around 390 nm and a peak around 425 nm.
# (§5) By titrating the amplitude of the type II difference spectra with increasing concentrations of ligand, Ks values were determined for tryptamine and β-phenylethylamine (FIG. 7).
# CYP83B1 [2] = biological target: T2, CYP83B1; assay: biochemical; conditions: for Type II spectrum (ligand binding to active site) / Relative affinity for ligand binding, from amplitudes of type II spectra: CYP83B1, 200 μM ligand
# Text: as §1, §2, §3, §4, §5
# CYP83B1 [3] = biological target: T2, CYP83B1; assay: Kinetics of indole-3-acetaldoxime metabolism by recombinant enzyme in yeast microsomes
# Procedure: Computed regression curves as well as the experimental data points are shown. The correlation coefficients (R^2) for CYP83B1 and CYP83A1 regression analyses are 0.985 and 0.999, respectively.
# as §3
# CYP83A1 [4] = biological target: T1, CYP83A1; assay: Reconstitution with oximes, turnover numbers by GC-MS; format: biochemical; set-up: made in house; host or cells: yeast WAT11 cells, pYeDP60 vector; microsomes; conditions: CYP83A1 0.5 μM, 1 mM substrate, β-mercaptoethanol thiol donor, 20 min at 28° C.
# Procedure: (§6) Turnover numbers were calculated based on the relative areas under the substrate and product peaks. Silylated substrates and products were identified by their fragmentation pattern in both electron impact mode and chemical ionization mode.
# (§7) Reconstitution experiments were also conducted to compare the ability of CYP83A1 and CYP83B1 to metabolize other oximes. The putative substrates tested were p-hydroxyphenylacetaldoxime derived from tyrosine and phenylacetaldoxime derived from phenylalanine. In all studies, β-mercaptoethanol was the thiol donor. […] Conversely, the turnover of p-hydroxyphenylacetaldoxime was higher using CYP83A1 compared to CYP83B 1. Phenylacetaldoxime was identified as a substrate for CYP83A1 as well as for CYP83B1 but the turnover numbers were low (Table 1).
# CYP83B1 [5] = biological target: T2, CYP83B1; assay: as above; format: biochemical; set-up: made in house; host or cells: yeast WAT11 cells, pYeDP60 vector; microsomes; conditions: CYP83B1 0.5 μM, 1 mM substrate, β-mercaptoethanol thiol donor, 20 min at 28° C.
# Procedure: as §6, §7
# CYP83B1 [6] = biological target: T2, CYP83B1; set-up: made in house; host or cells: yeast WAT11 cells, pYeDP60 vector; microsomes; conditions: cited from earlier work
# ON=CCc1c[nH]c2ccccc12 = assay: cells, lysate or membranes named; conditions: other: CYP83A1 in yeast microsomes, 2.2 nM enzyme, 50 mM L-cysteine as thiol donor
# [7] = substrate: ON=CCc1c[nH]c2ccccc12; assay: cells, lysate or membranes named; conditions: other: CYP83B1 in yeast microsomes, 2.2 nM enzyme, 50 mM L-cysteine as thiol donor
molecule,measurement,setting,value
NCCc1c[nH]c2ccc(O)cc12 [5-OH-tryptamine],Type II spectrum (ligand binding to active site),CYP83A1 [1],abolished binding
same,Type II spectrum (ligand binding to active site),CYP83B1 [2],abolished binding
N#CCc1c[nH]c2ccccc12 [Indole-3-acetonitrile],Type II spectrum (ligand binding to active site),CYP83A1 [1],did not produce a type II spectrum
same,Type II spectrum (ligand binding to active site),CYP83B1 [2],did not produce a type II spectrum
ON=CCc1c[nH]c2ccccc12 [indole-3-acetaldoxime],"Fold higher catalytic efficiency (Vmax/Km), CYP83B1 compared to CYP83A1",CYP83B1 [3]; indole-3-acetaldoxime as substrate,20 fold
same,"Fold difference in Km / affinity, CYP83B1 versus CYP83A1","CYP83B1 [3]; indole-3-acetaldoxime, higher affinity (lower Km) for CYP83B1",50 fold
same,"Turnover, indole-3-acetaldoxime",CYP83A1 [4],10 min⁻¹
same,"Turnover, indole-3-acetaldoxime",CYP83B1 [5],26 min⁻¹
CCCCCCCCN [n-octylamine],"Relative affinity for ligand binding, from amplitudes of type II spectra",CYP83A1 [1],n-octylamine>>α-phenylethylamine=tryptarine>tyramine
same,Type II spectrum (ligand binding to active site),CYP83A1 [1],type II spectra were observed
same,"Relative affinity for ligand binding, from amplitudes of type II spectra",CYP83B1 [2],tryptamine >>β-phenylethylanine>n-octylamine>tyramine
same,Type II spectrum (ligand binding to active site),CYP83B1 [2],type II spectra were observed
ON=CCc1ccc(O)cc1 [p-hydroxyphenylacetaldoxime],Turnover p-hydroxyphenylacetaldoxime,CYP83A1 [4],25 min⁻¹
same,Turnover p-hydroxyphenylacetaldoxime,CYP83B1 [5],9.8 min⁻¹
"ON=CCc1ccccc1 [phenylethylacetaldoxime, phenylacetaldoxime]",Turnover phenylethylacetaldoxime,CYP83A1 [4],7.2 min⁻¹
same,Turnover phenylethylacetaldoxime,CYP83B1 [5],15 min⁻¹
NCCc1c[nH]c2ccccc12 [tryptamine],Inhibition of metabolism of indole-3-acetaldoxime,CYP83B1 [6],inhibits metabolism of indole-3-acetaldoxime
same,Kd,CYP83A1 [1],240 ± 180 µM
same,"Relative affinity for ligand binding, from amplitudes of type II spectra",CYP83A1 [1],n-octylamine>>α-phenylethylamine=tryptarine>tyramine
same,Kd,CYP83B1 [2],18 ± 5 µM
same,"Relative affinity for ligand binding, from amplitudes of type II spectra",CYP83B1 [2],tryptamine >>β-phenylethylanine>n-octylamine>tyramine
same,Fold stronger binding to CYP83B1 compared to CYP83A1,CYP83B1 [2]; from Ks values,13 fold
same,Fold stronger ligand for CYP83B1 compared to β-phenylethylamine,CYP83B1 [2]; from Ks values,30 fold
NCCc1ccccc1 [β-phenylethylamine],Kd,CYP83A1 [1],390 ± 70 µM
same,"Relative affinity for ligand binding, from amplitudes of type II spectra",CYP83A1 [1],n-octylamine>>α-phenylethylamine=tryptarine>tyramine
same,Type II spectrum (ligand binding to active site),CYP83A1 [1],type II spectra were observed
same,Kd,CYP83B1 [2],540 ± 180 µM
same,"Relative affinity for ligand binding, from amplitudes of type II spectra",CYP83B1 [2],tryptamine >>β-phenylethylanine>n-octylamine>tyramine
same,Type II spectrum (ligand binding to active site),CYP83B1 [2],type II spectra were observed
CYP83A1 (Arabidopsis thaliana),Km,ON=CCc1c[nH]c2ccccc12,150 ± 15 µM
same,kcat,ON=CCc1c[nH]c2ccccc12,2.33 ± 0.167 s⁻¹
B1,Km,[7],3.1 ± 0.4 µM
